The text below walks through data of patent US20190111149A1, “ANTI-EGFR ANTIBODY DRUG CONJUGATE” (priority 2016, published 2019).

The target of the experiment is Meditope enabled Trastuzumab. The experiment is described as follows: BLI binding kinetics of meditope peptides to Meditope enabled Trastuzumab. Here is the method:
The binding kinetics of photo enabled meditopes to antibodies (e.g., meditope enabled Trastuzumab, T-mab, and P-mab) was tested.
A general note: Biolayer interferometry detects binding as a change in optical thickness at a sensor tip.

Bridge positions count the residues as written; N and C are the ends. Square brackets hold non-standard residues; d marks the D form. Ends that are not written are not given here. azido‑Phe = azido-phenylalanine, photoactivatable residue; Abu(3-Me-diazirin-3-yl) = CC1(CC[C@H](N)C(=O)O)N=N1; Bpa = N[C@@H](Cc1ccc(C(=O)c2ccccc2)cc1)C(=O)O

Sequence of Meditope enabled Trastuzumab (as listed by the source): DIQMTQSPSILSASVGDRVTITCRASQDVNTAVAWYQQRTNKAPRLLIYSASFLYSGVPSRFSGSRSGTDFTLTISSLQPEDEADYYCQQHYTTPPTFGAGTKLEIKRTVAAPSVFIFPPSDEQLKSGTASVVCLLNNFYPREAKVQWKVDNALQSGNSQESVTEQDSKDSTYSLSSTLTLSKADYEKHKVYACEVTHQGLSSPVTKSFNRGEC
Sequence of Meditope enabled Trastuzumab (as listed by the source): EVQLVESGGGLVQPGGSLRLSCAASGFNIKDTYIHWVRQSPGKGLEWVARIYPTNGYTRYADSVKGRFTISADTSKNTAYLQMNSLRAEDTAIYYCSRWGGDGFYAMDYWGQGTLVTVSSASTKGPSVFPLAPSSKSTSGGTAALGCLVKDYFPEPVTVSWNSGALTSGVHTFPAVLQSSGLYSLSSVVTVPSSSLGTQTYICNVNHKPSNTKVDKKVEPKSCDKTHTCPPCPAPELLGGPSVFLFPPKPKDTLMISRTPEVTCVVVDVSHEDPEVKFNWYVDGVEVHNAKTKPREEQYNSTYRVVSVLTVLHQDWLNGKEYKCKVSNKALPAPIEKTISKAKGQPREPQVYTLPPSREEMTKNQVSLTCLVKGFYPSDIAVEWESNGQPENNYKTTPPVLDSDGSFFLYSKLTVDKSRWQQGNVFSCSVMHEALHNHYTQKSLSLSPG

For orientation: Kd means the free concentration of one partner at which half of the binding sites on the other are occupied at equilibrium, for simple one-to-one binding. Low values mean higher affinity, high ones lower affinity. Broadly, the kon is the rate constant with which the complex forms. A high value points to faster complex formation. Regarding “Peptide 6: MMAD conjugated photoactivatable long cQFD photo-Met 9 (CQFDLSTR[Abu(3-Me-diazirin-3-yl)]LRCGGGK; disulfide 1-12 (inferred); also: MMAD conjugated)”, the dissociation constant (Kd) reads like this: (Conc. 50 nM) less than 0.001 nM; (Conc. 100 nM) 2.51 nM; (Conc. 200 nM) 0.0191 nM. In addition, the “kon” value (Conc. 100 nM) was 3.65e+06 M⁻¹ s⁻¹.
Consider “Peptide 12: MMAD conjugated photoactivatable long cQFD benzoyl-Phe 3 (CQ[Bpa]DLSTRRLRCGGGK; disulfide 1-12 (inferred); also: MMAD conjugated)”, for which the dissociation constant (Kd) (Conc. 50 nM) was less than 0.001 nM, the dissociation constant Kd (Conc. 100 nM) turned out to be 1.22 nM and the equilibrium dissociation constant (Kd) (Conc. 200 nM) came to 73.3 nM. Moreover, the “kon” value (Conc. 100 nM) is 9.47e+06 M⁻¹ s⁻¹ and the “kon” value (Conc. 200 nM) stood at 286000 M⁻¹ s⁻¹.
In the case of “Peptide 10: MMAD conjugated photoactivatable long cQFD azido-Phe 3 (CQ[azido‑Phe]DLSTRRLRCGGGK; disulfide 1-12 (inferred); also: MMAD conjugated)”, the Kd reads like this: (Conc. 50 nM) less than 0.001 nM; (Conc. 100 nM) 18100 nM; (Conc. 200 nM) 30200 nM. For the same substance, the “kon” value is 816 M⁻¹ s⁻¹ (Conc. 50 nM), 266 M⁻¹ s⁻¹ (Conc. 100 nM) and 537 M⁻¹ s⁻¹ (Conc. 200 nM).
